Source: patent publication US9145412B2, “Selective HDAC1 and HDAC2 inhibitors” (Acetylon Pharmaceuticals, Inc., priority 2012, dated 2015)

How the values were obtained:
[1] = test system: human CD34+ bone marrow cells; assay: Cell viability / cytotoxicity in cultured CD34+ cells; type: cell-based; settings: 1 μM, after 6 days of treatment
Excerpt: (§1) To investigate whether HDAC1 or HDAC2 was the preferred therapeutic target, two compounds were used.

[2] = test system: late erythroblasts (CD71+, GlyA+); assay: Gene expression profiling, Affymetrix PrimeView GeneChips; type: cell-based
Excerpt: (§2) Significant enrichment in other gene sets involving targets linked to HbG regulation, including lysine-specific demethylase 1 (LSD1) (Shi L, Nature Medicine, 2012) were identified.

[3] = test system: early erythroblasts (CD71+, GlyA−); assay: as above; type: cell-based; settings: n=3 vs vehicle
Excerpt: as §2

Bcl11A mRNA = assay: GeneChip and quantitative real-time PCR time course; type: cell-based
Excerpt: (§3) ChIP-seq data, both by itself and in combination with gene expression data, will provide further insight into the mechanism through which HDAC1/2 regulates HbF synthesis.

Gata2 mRNA = assay: as above; type: cell-based
Excerpt: as §3

Klf2 mRNA = assay: as above; type: cell-based
Excerpt: as §3

Sox6 mRNA = assay: as above; type: cell-based
Excerpt: as §3

HDAC1 = HDAC1 (Homo sapiens (Human), UniProt Q13547); assay: HDAC enzyme assay; type: biochemical; settings: enzyme pre-incubated with compound for 24 hours
HDAC1, sequence (Q13547 whole entry): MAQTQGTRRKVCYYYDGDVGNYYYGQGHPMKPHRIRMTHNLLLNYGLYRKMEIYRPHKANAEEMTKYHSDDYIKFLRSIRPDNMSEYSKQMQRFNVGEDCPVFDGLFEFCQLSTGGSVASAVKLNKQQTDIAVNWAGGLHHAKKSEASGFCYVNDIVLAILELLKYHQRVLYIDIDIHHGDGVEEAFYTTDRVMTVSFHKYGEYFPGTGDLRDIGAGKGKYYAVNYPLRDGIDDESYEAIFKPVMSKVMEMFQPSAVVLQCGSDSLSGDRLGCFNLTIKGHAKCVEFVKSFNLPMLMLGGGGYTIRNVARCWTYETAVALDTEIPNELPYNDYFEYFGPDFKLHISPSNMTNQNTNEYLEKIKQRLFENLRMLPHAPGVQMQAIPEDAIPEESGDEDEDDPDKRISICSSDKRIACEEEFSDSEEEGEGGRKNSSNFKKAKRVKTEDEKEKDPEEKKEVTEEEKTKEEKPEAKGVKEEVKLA
Experimental: (§4) Compounds for testing were diluted in DMSO to 50 fold the final concentration and a ten point three fold dilution series was made. The compounds were diluted in assay buffer (50 mM HEPES, pH 7.4, 100 mM KCl, 0.001% Tween-20, 0.05% BSA, 20 μM tris(2-carboxyethyl)phosphine) to 6 fold their final concentration. The HDAC enzymes (purchased from BPS Biosciences) were diluted to 1.5 fold their final concentration in assay buffer and pre-incubated with the compounds for 24 hours prior to addition of the substrate.
(§5) The substrate tripeptide substrate 3 (synthesized in house) for each enzyme was equal to the Km as determined by a substrate titration curve. The substrates were diluted in assay buffer at 6× their final concentration with 0.3 μM sequencing grade trypsin (Sigma). The substrate/trypsin mix was added to the enzyme/compound mix, the plate was shaken for 60 seconds and placed into a Spectramax M5 microtiter plate reader. The development of fluorescence was monitored for […] and the linear rate of the reaction was calculated. The IC50 was determined using Graph Pad Prism by a four parameter curve fit. The IC50 values obtained for the compounds of this invention are found in Table 1.

HDAC3 = HDAC3 (Homo sapiens (Human), UniProt O15379); assay: HDAC enzyme assay; type: biochemical; settings: enzyme pre-incubated with compound for 24 hours
HDAC3, sequence (O15379 whole entry): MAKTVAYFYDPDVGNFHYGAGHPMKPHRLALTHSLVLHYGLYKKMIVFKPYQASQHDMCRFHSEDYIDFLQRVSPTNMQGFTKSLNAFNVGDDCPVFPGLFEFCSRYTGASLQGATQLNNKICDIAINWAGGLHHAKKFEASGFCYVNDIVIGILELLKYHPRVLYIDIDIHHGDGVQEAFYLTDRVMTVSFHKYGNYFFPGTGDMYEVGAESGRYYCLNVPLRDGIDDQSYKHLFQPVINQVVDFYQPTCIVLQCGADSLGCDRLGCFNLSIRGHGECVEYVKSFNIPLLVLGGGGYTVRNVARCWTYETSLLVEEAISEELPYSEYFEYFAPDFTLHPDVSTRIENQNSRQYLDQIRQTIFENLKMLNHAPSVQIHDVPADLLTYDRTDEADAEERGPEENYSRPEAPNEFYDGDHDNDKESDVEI
HDAC3, sequence (Q9Y618 395-489 partner): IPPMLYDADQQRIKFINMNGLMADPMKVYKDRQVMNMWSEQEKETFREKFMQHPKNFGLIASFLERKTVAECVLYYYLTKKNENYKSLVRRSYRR
Experimental: as §4, §5

HDAC2 = HDAC2 (Homo sapiens (Human), UniProt Q92769); assay: HDAC enzyme assay; type: biochemical; settings: enzyme pre-incubated with compound for 24 hours
HDAC2, sequence (Q92769 whole entry): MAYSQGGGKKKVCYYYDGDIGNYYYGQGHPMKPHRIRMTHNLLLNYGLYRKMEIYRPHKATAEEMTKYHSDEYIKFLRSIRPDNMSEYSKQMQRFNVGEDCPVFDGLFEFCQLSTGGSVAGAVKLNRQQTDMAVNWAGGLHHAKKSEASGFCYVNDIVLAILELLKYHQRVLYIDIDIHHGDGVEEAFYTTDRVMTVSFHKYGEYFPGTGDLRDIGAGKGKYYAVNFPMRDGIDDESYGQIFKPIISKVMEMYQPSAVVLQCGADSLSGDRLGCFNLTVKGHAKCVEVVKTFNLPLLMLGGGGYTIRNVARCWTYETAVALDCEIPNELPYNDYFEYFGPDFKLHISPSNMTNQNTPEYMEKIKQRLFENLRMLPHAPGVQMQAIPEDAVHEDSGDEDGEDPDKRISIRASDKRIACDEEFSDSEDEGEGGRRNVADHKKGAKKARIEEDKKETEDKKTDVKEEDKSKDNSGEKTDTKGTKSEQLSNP
Experimental: as §4, §5

[4] = test system: human CD34+ bone marrow cells; assay: Erythroid differentiation markers CD71 and glycophorinA; type: cell-based; settings: 1 μM, 6 days
Excerpt: as §1

[5] = test system: human CD34+ bone marrow cells; assay: Fetal globin (HbG) induction in cultured CD34+ cells undergoing erythroid differentiation; type: cell-based; settings: for increase in the percentage of HbG relative to other beta-like globin transcripts: 1 μM, treatment of cells for 6 days
Experimental: CD34+ cells isolated from human bone marrow were cultured in vitro using two distinct sets of culture conditions. Culture system 1 (CS1), described by Xu J et al. (Science 2011 Nov. 18; 334(6058):993-6), consists of a 7 day expansion phase in media that supports hematopoietic progenitor cells followed by a differentiation phase of 4 to 8 days in media that induces development of erythroid lineage cells. Culture system 2 (CS2), described by Bradner J E (Proc Natl Acad Sci USA. 2010 Jul. 13; 107(28):12617-22), consists of a 7 day expansion phase in media that supports differentiation of cells towards the erythroid lineage followed by a differentiation phase for 3 days where erythroid cell development continues. After 3 to 5 days in differentiation media CS1 cells are primarily early erythroblasts (EB), while CS2 cells are primarily late EB. mRNA levels were determine by quantitative real time PCR using primer/probe sets designed to adult major β-globin (β), adult minor β-globin (δ), fetal β-like globin (HbG, γ), and embryonic β-like globin (ε). Protein levels were determined by flow cytometry using fluorescent antibodies against fetal hemoglobin (HbF) or adult hemoglobin (HbA). […] Globin mRNA levels were determined in cells at day 0, 3, 5, and 8 of differentiation. […] Globin mRNA levels were determined at day 3 of differentiation. […] Hemoglobin protein levels within each cell were determined at day 5 of differentiation. […] After 2 days, media was exchanged and cells were differentiated for an additional 2 days in the absence of compound. Hemoglobin protein levels within each cell were determined at day 4 of differentiation.
as §1

| IC50 (HDAC1) | IC50 (HDAC3) | IC50 (HDAC2) | Compound | decrease in cell viability [1] | total probe set changes [2] | probe sets down regulated [3] | probe sets up regulated [3] | decrease in Bcl11A mRNA (Bcl11A mRNA) | increase in Gata2 mRNA (Gata2 mRNA) | increase in Klf2 mRNA (Klf2 mRNA) | decrease in Sox6 mRNA (Sox6 mRNA) | cells positive for the erythroid differentiation markers CD71 and glycophorinA [4] | increase in the percentage of HbG relative to other beta-like globin transcripts [5] | HbG induction in cells positive for both CD71 and GlyA ([5]; follow-up experiments, CD71+ GlyA+ cells) |
| --- | --- | --- | --- | --- | --- | --- | --- | --- | --- | --- | --- | --- | --- | --- |
| 4 nM | 114 nM | 15 nM | Nc1ccc(-c2cccs2)cc1NC(=O)c1ccc2nc(N3CCNCC3)ccc2c1 [Compound 001, N-(2-amino-5-(thiophen-2-yl)phenyl)-2-(piperazin-1-yl)quinoline-6-carboxamide] | approximately 3 fold | 255 | 681 | 1294 | 2 fold | 8 fold | 2 fold | 10 fold | reduction | 3 fold | unable to induce HbG |
| 27 nM | 247 nM | 24 nM | Nc1ccc(-c2ccncc2)cc1NC(=O)c1ccc2c(c1)cc(C1CC1)n2CCN1CCOCC1 [Compound 004, N-(2-amino-5-(pyridin-4-yl)phenyl)-2-cyclopropyl-1-(2-morpholinoethyl)-1H-indole-5-carboxamide] | 1.2 fold |  |  |  |  |  |  |  |  | 3 fold |  |
